We go through 20 molecules from patent US20250296938A1, “Compounds that Interact with the Ras Superfamily for the Treatment of Cancers, Inflammatory Diseases, Rasopathies, and Fibrotic Disease” (SHY Therapeutics, LLC, priority 2018, published 2025).

The structures appear in SMILES notation. Read-outs that look alike come from different tables or passages of the source.

Common to all, as to experiment: Ras GTP binding domain inhibition assay (Cy3-GTP/Cy5-GTP competition)
One assay concerns the target T1, KRas G12D mutant (Homo sapiens, UniProt P01116, G12D).
T1 construct: fused on or other part: His tag, used for capture on nickel-coated plates
The note with it: at 20 μM. The method, boiled down: (§1)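 First, His-tagged protein is coated on nickel wells overnight at 4 °C. Next, compound (20 μM single point or serial dilution) is added for 3 h at room temperature, with or without Sos exchange factor in the last hour. Finally, 100 nM labelled GTP binds for 45 min and retained signal is measured.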

The next assay concerns the target Rac-1 (Homo sapiens, UniProt P63000). The method, boiled down:
as §1

A further assay addresses Rho-A (Homo sapiens, UniProt P61586). The method, boiled down: as §1
The mark [1] stands for this setting: with SOS, read-out: KRas G12D mutant + SOS: % inh.
The mark [2] stands for this setting: without SOS, read-out: KRas G12D mutant: % inh.
The mark [3] stands for this setting: with SOS, read-out: Rac-1 + SOS: % inh.
Setting [4] is: without SOS, read-out: Rac-1: % inh.
[5] abbreviates: with SOS, read-out: Rho-A + SOS: % inh.
[6] abbreviates: without SOS, read-out: Rho-A: % inh.

As to `COc1c(O)nc(-c2ccccn2)nc1Oc1ccc2ncccc2c1` [drawing 939], the inhibition at 20 µM on KRas G12D mutant (setting [1]) was 26 to 50%; at KRas G12D mutant (setting [2]) it was 51 to 75%; on Rac-1 (setting [3]) it was 51 to 75%; at Rac-1 (setting [4]), 51 to 75%; at Rho-A (setting [5]) it was 76 to 100%; on Rho-A (setting [6]) it was 76 to 100%.

As to `COCCn1cc(Nc2nc(-c3ccccn3)nc(OC)c2OC)cn1` [drawing 928], the inhibition at 20 µM at KRas G12D mutant (setting [1]) is 1 to 25%; on KRas G12D mutant (setting [2]) it was 1 to 25%; at Rac-1 (setting [3]) it was 1 to 25%; on Rac-1 (setting [4]) it was 1 to 25%; at Rho-A (setting [5]) it was 0%; at Rho-A (setting [6]), 0%.

With `CC(C)CNC(=O)c1nc(-c2ccccn2)nc(O)c1O` [drawing 946], the inhibition at 20 µM fell in the range of 1 to 25% at KRas G12D mutant (setting [1]); 51 to 75% on KRas G12D mutant (setting [2]); 76 to 100% at Rac-1 (setting [3]); 51 to 75% at Rac-1 (setting [4]); 51 to 75% on Rho-A (setting [5]); 51 to 75% on Rho-A (setting [6]).

As for `O=C(c1nc(-c2ccccn2)nc(O)c1O)N1CCc2ccccc2C1` [drawing 967], the inhibition at 20 µM at KRas G12D mutant (setting [1]) fell in the range of 26 to 50%; on KRas G12D mutant (setting [2]) it was 51 to 75%; on Rac-1 (setting [3]) it was 51 to 75%; on Rac-1 (setting [4]), 76 to 100%; at Rho-A (setting [5]) it was 76 to 100%; on Rho-A (setting [6]) it was 76 to 100%.

`COC1CCN(c2nc(-c3nccn3C)nc3sc(-c4ccn(C)n4)c(-c4ccccc4)c23)C1` (stereo not drawn) [drawing 998]: the inhibition at 20 µM was 1 to 25% at KRas G12D mutant (setting [1]); 1 to 25% at KRas G12D mutant (setting [2]); 26 to 50% on Rac-1 (setting [3]); 26 to 50% on Rac-1 (setting [4]); 1 to 25% at Rho-A (setting [5]); 0% on Rho-A (setting [6]).

As to `Cn1ccnc1-c1nc(O)c(O)c(C(=O)N2CCCCC2)n1` [drawing 961], the inhibition at 20 µM was in the range of 1 to 25% at KRas G12D mutant (setting [1]); 26 to 50% on KRas G12D mutant (setting [2]); 1 to 25% at Rac-1 (setting [3]); 51 to 75% on Rac-1 (setting [4]); 51 to 75% at Rho-A (setting [5]); 26 to 50% at Rho-A (setting [6]).

Regarding `Oc1nc(-c2cn(-c3ccccc3)cn2)nc2c(-c3ccccn3)csc12` [drawing 982], the inhibition at 20 µM is 1 to 25% at KRas G12D mutant (setting [1]); 1 to 25% on KRas G12D mutant (setting [2]); 1 to 25% at Rac-1 (setting [3]); 26 to 50% on Rac-1 (setting [4]); 26 to 50% on Rho-A (setting [5]); 0% on Rho-A (setting [6]).

For `Cn1ccnc1-c1nc(O)c2scc(-c3ccccn3)c2n1` [drawing 988], the inhibition at 20 µM lay in the range of 51 to 75% at KRas G12D mutant (setting [1]); 76 to 100% on KRas G12D mutant (setting [2]); 76 to 100% at Rac-1 (setting [3]); 51 to 75% on Rac-1 (setting [4]); 76 to 100% on Rho-A (setting [5]); 51 to 75% on Rho-A (setting [6]).

In the case of `COC1CCN(c2nc(-c3nccn3C)nc3sc(-c4cccnc4)c(-c4ccccc4)c23)C1` (stereo not drawn) [drawing 979], the inhibition at 20 µM lay in the range of 51 to 75% at KRas G12D mutant (setting [1]); 51 to 75% at KRas G12D mutant (setting [2]); 51 to 75% on Rac-1 (setting [3]); 76 to 100% at Rac-1 (setting [4]); 51 to 75% on Rho-A (setting [5]); 51 to 75% on Rho-A (setting [6]).

Regarding `CCOC1CCN(c2nc(-c3nccn3C)nc3sc(-c4ccn(C)n4)c(-c4ccccc4)c23)C1` (stereo not drawn), the inhibition at 20 µM on KRas G12D mutant (setting [1]) was 26 to 50%; at KRas G12D mutant (setting [2]) it was 26 to 50%; on Rac-1 (setting [3]) it was 26 to 50%; on Rac-1 (setting [4]) it was 1 to 25%; at Rho-A (setting [5]) it was 0%; on Rho-A (setting [6]), 26 to 50%.

Turning to `COC1CCN(c2nc(-c3nccn3C)nc3sc(-c4ccc(CO)cc4)c(-c4ccccc4)c23)C1` (stereo not drawn) [drawing 954], the inhibition at 20 µM at KRas G12D mutant (setting [1]) is 51 to 75%; at KRas G12D mutant (setting [2]), 1 to 25%; at Rac-1 (setting [3]) it was 0%; on Rac-1 (setting [4]), 0%; at Rho-A (setting [5]), 0%; on Rho-A (setting [6]), 0%.

In the case of `Cn1ccnc1-c1nc(O)c(O)c(C(=O)N2CCCC2)n1` [drawing 963], the inhibition at 20 µM was in the range of 1 to 25% on KRas G12D mutant (setting [1]); 26 to 50% at KRas G12D mutant (setting [2]); 26 to 50% on Rac-1 (setting [3]); 51 to 75% at Rac-1 (setting [4]); 51 to 75% on Rho-A (setting [5]); 1 to 25% at Rho-A (setting [6]).

Regarding `COC1CCN(c2nc(-c3nccn3C)nc3sc(-c4ccnn4C)c(-c4ccccc4)c23)C1` (stereo not drawn) [drawing 972], the inhibition at 20 µM on KRas G12D mutant (setting [1]) fell in the range of 51 to 75%; on KRas G12D mutant (setting [2]), 51 to 75%; on Rac-1 (setting [3]), 1 to 25%; on Rac-1 (setting [4]), 26 to 50%; on Rho-A (setting [5]) it was 76 to 100%; at Rho-A (setting [6]), 51 to 75%.

For the molecule `COC1CCN(c2nc(-c3nccn3C)nc3sc(-c4ccnc(N(C)C)c4)c(-c4ccccc4)c23)C1` (stereo not drawn) [drawing 958], the inhibition at 20 µM lay within 51 to 75% at KRas G12D mutant (setting [1]); 51 to 75% on KRas G12D mutant (setting [2]); 51 to 75% at Rac-1 (setting [3]); 26 to 50% at Rac-1 (setting [4]); 26 to 50% at Rho-A (setting [5]); 26 to 50% at Rho-A (setting [6]).

On to `Cc1c(-c2ccn(C)n2)sc2nc(-c3nccn3C)nc(NCCOC(=O)N(C)C)c12` [drawing 1053], for which the inhibition at 20 µM is 76 to 100% at KRas G12D mutant (setting [1]); 76 to 100% at KRas G12D mutant (setting [2]); 51 to 75% on Rac-1 (setting [3]); 76 to 100% at Rac-1 (setting [4]); 51 to 75% on Rho-A (setting [5]); 76 to 100% at Rho-A (setting [6]).

For `COCCNc1nc(-c2nccn2C)nc2sc(-c3cc(OC)ccc3Cl)c(-c3ccccc3)c12` [drawing 1006], the inhibition at 20 µM lay within 1 to 25% on KRas G12D mutant (setting [1]); 26 to 50% at KRas G12D mutant (setting [2]); 26 to 50% at Rac-1 (setting [3]); 1 to 25% at Rac-1 (setting [4]); 51 to 75% on Rho-A (setting [5]); 1 to 25% on Rho-A (setting [6]).

Consider `CO[C@@H]1CCC(Nc2nc(-c3nccn3C)nc3sc(-c4ccn(C)n4)c(-c4ccccc4)c23)C1` (stereo partly drawn) [drawing 994], for which the inhibition at 20 µM on KRas G12D mutant (setting [1]) is 26 to 50%; on KRas G12D mutant (setting [2]) it was 26 to 50%; at Rac-1 (setting [3]), 26 to 50%; at Rac-1 (setting [4]), 26 to 50%; at Rho-A (setting [5]) it was 76 to 100%; at Rho-A (setting [6]), 0%.

In the case of `COc1c(O)nc(-c2ccccn2)nc1Nc1ccccc1` [drawing 1015], the inhibition at 20 µM on KRas G12D mutant (setting [1]) fell in the range of 26 to 50%; at KRas G12D mutant (setting [2]) it was 26 to 50%; on Rac-1 (setting [3]), 51 to 75%; on Rac-1 (setting [4]), 51 to 75%; at Rho-A (setting [5]), 51 to 75%; at Rho-A (setting [6]) it was 51 to 75%.

`CCN(CC)C(=O)c1nc(-c2nccn2C)nc(O)c1O` [drawing 964]: the inhibition at 20 µM at KRas G12D mutant (setting [1]) is 1 to 25%; on KRas G12D mutant (setting [2]), 51 to 75%; on Rac-1 (setting [3]), 1 to 25%; on Rac-1 (setting [4]), 26 to 50%; at Rho-A (setting [5]), 51 to 75%; at Rho-A (setting [6]), 26 to 50%.

`Cc1cn(C)c(-c2nc(O)c3scc(-c4ccccn4)c3n2)n1` [drawing 942]: the inhibition at 20 µM was 26 to 50% on KRas G12D mutant (setting [1]); 76 to 100% at KRas G12D mutant (setting [2]); 51 to 75% at Rac-1 (setting [3]); 51 to 75% on Rac-1 (setting [4]); 76 to 100% on Rho-A (setting [5]); 76 to 100% on Rho-A (setting [6]).
